Key:
[1] = Metabolite identification, human liver microsome incubation of parent compound; format: in vitro ADME; details: for Relative Abundance of metabolite, HLM-NADPH ctrl: human liver microsomes, control without NADPH; for Relative Abundance of metabolite, Human Liver Microsomes: parent incubated 1 h with NADPH, relative peak height on UV chromatogram
Procedure: (§1) Microsomes: 1-{2-[5-(3-Methyl-oxetan-3-ylmethoxy)-benzoimidazol-1-yl]-quinolin-8-yl}-piperidin-4-ylamine (10 μM) was incubated in mouse, rat, dog, monkey and human liver microsomes and collected for analysis. 1-{2-[5-(3-Methyl-oxetan-3-ylmethoxy)-benzoimidazol-1-yl]-quinolin-8-yl}-piperidin-4-ylamine, (final concentration […]) was incubated in mouse (0.45 mg/mL protein), rat ([…] protein), dog ([…] protein), monkey (0.42 mg/mL protein) and human liver microsomes (1.56 mg/mL protein) containing MgCl2 (10 mM) and NADPH (1 mM) in potassium phosphate buffer (100 mM, pH 7.4) at 37° C. The total volume of each reaction mixture was 5 mL containing a total cytochrome P450 concentration of […]. Each mixture was preincubated for 10 minutes before addition of NADPH to initiate the reaction. The reaction was stopped one hour after addition of NADPH by adding two volumes of acetonitrile to the reaction mixture. […] Samples were prepared for analysis by centrifugation at 300 rpm to pellet the precipitated proteins and by evaporating the supernatant to dryness. The dried […] were reconstituted in 600 μL 50/50 10 mM ammonium formate, pH 3.0/acetonitrile, and 10 μL aliquots were analyzed by liquid chromatography and mass spectroscopy (LC/MS/MS). 1-{2-[5-(2-Methoxy-ethoxy)-benzoimidazol-1-yl]-quinolin-8-yl}-piperidin-4-ylamine was incubated in dog liver microsomes under the same conditions as a positive control.
(§2) Separation of 1-{2-[5-(3-Methyl-oxetan-3-ylmethoxy)-benzoimidazol-1-yl]-quinolin-8-yl}-piperidin-4-ylamine and its metabolites in all samples was accomplished on a Zorbax SB-C18 reverse phase column (5 μm, 4.6×150 mm) at a flow rate of 1.0 mL/min. The mobile phase consisted of 10 mM ammonium formate, pH 3.0, (A) and acetonitrile (B). After injection of the sample, the column was washed with 10% B for 5 minutes followed by resolution of the metabolites with a linear gradient from 10% to 50% B over a 20-minute period. A 5-minute wash with 90% B followed by a 7-minute re-equilibration to 10% B was used between subsequent injections.
(§3) All Samples were analyzed by a Finnigan TSQ7000 mass spectrometer operated in positive ion mode with in-line ultraviolet detection (Shimadzu, λ=254 nm). Ionspray voltage and capillary temperature were maintained at 4.5 kV and 350 degrees Celsius, respectively. Product ion spectra were obtained with CID of 35 V; further fragmentation was obtained by conducting product ion scans with source CID of 10 V. Neutral loss scans of 176 (for glucuronide detection) were conducted with CID of 30 V.
(§4) The metabolites were initially identified by molecular ion (Q1) scans of the sample mixture. Potential metabolites were characterized by fragmentation of the metabolite molecular ions and comparison of the resulting fragmentation patterns with the 1-{2-[5-(3-Methyl-oxetan-3-ylmethoxy)-benzoimidazol-1-yl]-quinolin-8-yl}-piperidin-4-ylamine product mass spectrum.

[2] = Metabolite identification, rat liver microsome incubation of parent compound; format: in vitro ADME; details: for Relative Abundance of metabolite, Rat Liver Microsomes: parent incubated 1 h with NADPH; for Relative Abundance of metabolite, RLM-NADPH ctrl: rat liver microsomes, control without NADPH
Procedure: as §1, §2, §3, §4

[3] = Metabolite identification, dog liver microsome incubation of parent compound; format: in vitro ADME; details: for Relative Abundance of metabolite, DLM-NADPH ctrl: dog liver microsomes, control without NADPH; for Relative Abundance of metabolite, Dog Liver Microsomes: parent incubated 1 h with NADPH
Procedure: as §1, §2, §3, §4

[4] = Metabolite identification, human cryopreserved hepatocyte incubation of parent compound; format: in vitro ADME; details: parent incubated up to four hours
Procedure: (§5) Hepatocytes: Rat, dog and human cryopreserved hepatocyte incubations were performed using 1-{2-[5-(3-Methyl-oxetan-3-ylmethoxy)-benzoimidazol-1-yl]-quinolin-8-yl}-piperidin-4-ylamine. Rat, dog and human cryopreserved hepatocytes were obtained from In Vitro Technologies, Baltimore, Md. and suspended in Williams E Media, available from Fisher-Scientific, to a final cell density of 1×10^6 viable cells/mL. 1-{2-[5-(3-Methyl-oxetan-3-ylmethoxy)-benzoimidazol-1-yl]-quinolin-8-yl}-piperidin-4-ylamine was incubated in these hepatocyte suspensions at a final concentration of […] at 37° C. in a shaking water bath for up to four hours. A 5 mL aliquot was removed from each incubation mixture immediately and at four hours after addition of substrate. The samples were prepared for analysis by mixing with two volumes of acetonitrile followed by centrifugation to pellet precipitated proteins. The […] were evaporated to dryness before analysis. Dried samples were reconstituted in 300 μL 50/50 10 mM ammonium formate, pH 3.0/acetonitrile, and 10 μL aliquots were analyzed by LC/MS/MS. 1-{2-[5-(2-Methoxy-ethoxy)-benzoimidazol-1-yl]-quinolin-8-yl}-piperidin-4-ylamine was incubated in dog hepatocytes under the same conditions as a positive control.
as §2, §3, §4

[5] = Metabolite identification, rat cryopreserved hepatocyte incubation of parent compound; format: in vitro ADME; details: parent incubated up to four hours
Procedure: as §5, §2, §3, §4

[6] = Metabolite identification, dog cryopreserved hepatocyte incubation of parent compound; format: in vitro ADME; details: parent incubated up to four hours
Procedure: as §5, §2, §3, §4

[7] = Metabolite identification, human liver cytosol incubation of parent compound; format: in vitro ADME; details: for Relative Abundance of metabolite, Human Liver Cytosol: parent incubated one hour; as to Relative Abundance of metabolite, Human Liver Cytosol: key: −: metabolite not observed; +: minor metabolite; +++: major metabolite
Procedure: (§6) Cytosol: 1-{2-[5-(3-Methyl-oxetan-3-ylmethoxy)-benzoimidazol-1-yl]-quinolin-8-yl}-piperidin-4-ylamine (10 μM) was incubated and prepared for analysis. Cryopreserved human liver cytosol from Tissue Transformation Technologies Inc., Edison, N.J., (lot: HHC-0255, ˜20 mg/mL) and dog liver cytosol (˜35 mg/mL) were thawed on ice immediately before the incubation. The cytosol was diluted 10-fold in 100 mM potassium phosphate buffer (pH 7.4) before addition of 1-{2-[5-(3-Methyl-oxetan-3-ylmethoxy)-benzoimidazol-1-yl]-quinolin-8-yl}-piperidin-4-ylamine (final concentration […]) for a final incubation volume of 2 mL. Samples were incubated for one hour in a 37° C. water bath, then quenched with two volumes of acetonitrile. Samples were vortexed and subsequently centrifuged at 3000 rpm. Samples were prepared for analysis by centrifugation at 3000 rpm to pellet the precipitated proteins and by evaporating the supernatant to dryness. The samples were reconstituted in 300 μL 50/50 10 mM ammonium formate, pH 3.0/acetonitrile. A 10 μL reconstituted aliquot was analyzed by LC/MS/MS. 1-{2-[5-(2-Methoxy-ethoxy)-benzoimidazol-1-yl]-quinolin-8-yl}-piperidin-4-ylamine was incubated in human and dog liver cytosol under the same conditions as a positive control.
as §2, §3, §4

[8] = Metabolite identification, dog liver cytosol incubation of parent compound; format: in vitro ADME; details: for Relative Abundance of metabolite, Dog Liver Cytosol: parent incubated one hour
Procedure: as §6, §2, §3, §4

[9] = Metabolite identification in dog plasma after intravenous administration of parent compound; format: in vivo, beagle dogs; details: for Relative Abundance of metabolite, Dog Plasma (IV): 2.0 mg/kg intravenous parent, 20 min, 40 min and 1 h samples
Procedure: Dog Plasma and Bile: Dog plasma was collected from beagle dogs following intravenous administration (2.0 mg/kg) of 1-{2-[5-(3-Methyl-oxetan-3-ylmethoxy)-benzoimidazol-1-yl]-quinolin-8-yl}-piperidin-4-ylamine. A 200 μL plasma sample from each dog was pooled for each timepoint. Three volumes of acetonitrile were added to the pooled plasma samples to precipitate proteins. Following centrifugation, the supernatant was recovered and dried at 37° C. under nitrogen and reconstituted in 150 μL 50/50 10 mM ammonium formate, pH 3.0/acetonitrile. A 20 μL aliquot was analyzed by LC/MS/MS.
as §2, §3, §4

[10] = Metabolite identification in dog bile after administration of parent compound; format: in vivo, beagle dogs; details: for Relative Abundance of metabolite, Dog Bile (IV): only 2-4 hr samples analyzed, cannot distinguish between M6 and M7; for Excretion in bile: dog, after 5.0 mg/kg oral administration of parent
[11] = target: T1, microsomal epoxide hydrolase (Homo sapiens, UniProt P07099); test: Microsomal epoxide hydrolase inhibitor studies; format: in vitro ADME
T1 sequence (P07099 1-455): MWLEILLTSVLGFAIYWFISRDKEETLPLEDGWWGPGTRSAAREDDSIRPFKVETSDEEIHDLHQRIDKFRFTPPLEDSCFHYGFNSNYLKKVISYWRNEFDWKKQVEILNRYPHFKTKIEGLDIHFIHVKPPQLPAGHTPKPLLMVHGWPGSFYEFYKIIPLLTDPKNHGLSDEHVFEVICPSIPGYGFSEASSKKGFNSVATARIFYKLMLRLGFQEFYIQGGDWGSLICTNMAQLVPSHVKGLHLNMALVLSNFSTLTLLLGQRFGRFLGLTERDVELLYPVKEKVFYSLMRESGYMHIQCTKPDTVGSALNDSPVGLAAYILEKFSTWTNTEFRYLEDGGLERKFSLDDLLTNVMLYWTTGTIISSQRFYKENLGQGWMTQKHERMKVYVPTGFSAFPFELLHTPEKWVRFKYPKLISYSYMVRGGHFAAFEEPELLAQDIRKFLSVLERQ

| SMILES | Relative Abundance of metabolite, HLM-NADPH ctrl [1] | Relative Abundance of metabolite, Human Liver Microsomes [1] | Relative Abundance of metabolite, Rat Liver Microsomes [2] | Relative Abundance of metabolite, RLM-NADPH ctrl [2] | Relative Abundance of metabolite, DLM-NADPH ctrl [3] | Relative Abundance of metabolite, Dog Liver Microsomes [3] | Relative Abundance of metabolite, Human Hepatocytes [4] | Relative Abundance of metabolite, Rat Hepatocytes [5] | Relative Abundance of metabolite, Dog Hepatocytes [6] | Relative Abundance of metabolite, Human Liver Cytosol [7] | Relative Abundance of metabolite, Dog Liver Cytosol [8] | Relative Abundance of metabolite, Dog Plasma (IV) [9] | Relative Abundance of metabolite, Dog Bile (IV) [10] | Excretion in bile [10] | also measured |
| --- | --- | --- | --- | --- | --- | --- | --- | --- | --- | --- | --- | --- | --- | --- | --- |
| CC(CO)(CO)COc1ccc2c(c1)ncn2-c1ccc2cccc(N3CCC(N)CC3)c2n1 [Metabolite M1, 2-{1-[8-(4-Amino-piperidin-1-yl)-quinolin-2-yl]-1H-benzoimidazol-5-yloxymethyl}-2-methyl-propane-1,3-diol] | + (minor metabolite) | +++ (major metabolite) | +++ (major metabolite) | + (minor metabolite) | +++ (major metabolite) | +++ (major metabolite) | +++ (major metabolite) | +++ (major metabolite) | +++ (major metabolite) | − | +++ (major metabolite) | +++ (major metabolite) | +++ (major metabolite) | excreted in bile | Formation of M1, cofactor dependence ([1]; human): NADPH dependent; Formation of M1, cofactor dependence ([2]; rat): NADPH dependent; Formation of M1, cytochrome P450 mediation ([3]; dog): not mediated by cytochrome P450; Metabolite status in dog liver cytosolic incubations [8]: predominant metabolite; Metabolite status in dog plasma ([9]; twenty minutes to one hour after 2.0 mg/kg intravenous administration of parent): major metabolite |
| CC1(COc2ccc3c(c2)ncn3-c2ccc3cccc(N4CCC(N)CC4)c3n2)COC1 [1-{2-[5-(3-Methyl-oxetan-3-ylmethoxy)-benzoimidazol-1-yl]-quinolin-8-yl}-piperidin-4-ylamine, reference compound] |  |  |  |  |  |  |  |  |  |  |  |  |  | appears to be excreted in bile | Metabolites in human liver cytosolic incubations ([7]; parent incubated in human liver cytosol): No metabolites were observed; Substrate for microsomal epoxide hydrolase [11]: not a substrate |
| CC(CO)(COc1ccc2c(c1)ncn2-c1ccc2cccc(N3CCC(N)CC3)c2n1)C(=O)O (stereo not drawn) [Metabolite M2, 3-{1-[8-(4-Amino-piperidin-1-yl)-quinolin-2-yl]-1H-benzoimidazol-5-yloxy}-2-hydroxymethyl-2-methyl-propionic acid] | − | +++ (major metabolite) | − | − | − | + (minor metabolite) | +++ (major metabolite) | +++ (major metabolite) | + (minor metabolite) | − | − | − | + (minor metabolite) | excreted in bile |  |

More lines, main results first:

| Relative Abundance of metabolite, HLM-NADPH ctrl [1] | Relative Abundance of metabolite, Human Liver Microsomes [1] | Relative Abundance of metabolite, Rat Liver Microsomes [2] | Relative Abundance of metabolite, RLM-NADPH ctrl [2] | Relative Abundance of metabolite, DLM-NADPH ctrl [3] | Relative Abundance of metabolite, Dog Liver Microsomes [3] | Relative Abundance of metabolite, Human Hepatocytes [4] | Relative Abundance of metabolite, Rat Hepatocytes [5] | Relative Abundance of metabolite, Dog Hepatocytes [6] | Relative Abundance of metabolite, Human Liver Cytosol [7] | Relative Abundance of metabolite, Dog Liver Cytosol [8] | Relative Abundance of metabolite, Dog Plasma (IV) [9] | Relative Abundance of metabolite, Dog Bile (IV) [10] | Excretion in bile [10] | SMILES | also measured |
| --- | --- | --- | --- | --- | --- | --- | --- | --- | --- | --- | --- | --- | --- | --- | --- |
| − | − | − | − | − | − | − | − | − | − | − | − | + (minor metabolite) |  | NC1CCN(c2cccc3ccc(-n4cnc5cc(O)ccc54)nc23)CC1 [Metabolite M8, 1-[8-(4-Amino-piperidin-1-yl)-quinolin-2-yl]-1H-benzoimidazol-5-ol] | Observation in bile ([10]; dog bile 2-4 hr post-dose of parent): observed in bile |
|  |  |  |  |  |  | − | − | + (minor metabolite) | − | − | − | − |  | CC(CO)(COc1ccc2c(c1)ncn2-c1ccc2cccc(N3CCC(N)CC3)c2n1)COC1O[C@H](C(=O)O)[C@@H](O)[C@H](O)[C@H]1O (stereo in doubt) [Metabolite M5, 6-(3-{1-[8-(4-Amino-piperidin-1-yl)-quinolin-2-yl]-1H-benzoimidazol-5-yloxy}-2-hydroxymethyl-2-methyl-propoxy)-3,4,5-trihydroxy-tetrahydro-pyran-2-carboxylic acid] |  |

— patent US20100016353A1, “BENZOIMIDAZOLE DERIVATIVES USEFUL AS ANTIPROLIFERATIVE AGENTS” (priority 2004, published 2010)
